15 compounds from paper PMC8205039, “Synthesis and biological evaluation of 4-phenoxy-phenyl isoxazoles as novel acetyl-CoA carboxylase inhibitors” (Journal of Enzyme Inhibition and Medicinal Chemistry, 2021) can be followed below.

The subject of data set [1] is HepG2 cells. The data set can be described thus: MTT assay, HepG2. The format is cell-based. Conditions: Homo sapiens, 72 h, mean ± SD (n = 3). The protocol:
(§1) The cytotoxicity of target compounds was assessed by MTT assay. Briefly, cells were seeded in 96-well plates at a density of 2500–3000 per well and incubated for 24 h in a CO2 incubator. Then, the cells were treated with candidate compounds at seven different concentrations for 72 h. At the end of treatment, the MTT reagent (5 mg/mL) was added to determine the cell viability. After 4 h of incubation, the resulting medium was removed, and 100 µL of DMSO was added to dissolve the formed formazan. Finally, the absorbance at 550 nm was measured by a microplate reader (Varioskan LUX, […]), with the IC50 values calculated using GraphPad Prism 5 software (GraphPad Software, La Jolla, CA, USA).

The test system of data set [2] is MDA-MB-231 cells. The data set can be described thus: MTT assay, MDA-MB-231. Conditions: Homo sapiens, 72 h, mean ± SD (n = 3). It is filed as cell-based. The protocol: as §1
For orientation: Formazan colour is commonly taken as a measure of viable cells.

Data set [3] relates to A549 cells. The data set can be described thus: MTT assay, A549. Conditions: Homo sapiens, 72 h, mean ± SD (n = 3). It is filed as cell-based. The protocol:
as §1

Data set [4] concerns the target T1, hACC1 (Homo sapiens, UniProt Q13085).
T1 construct: purchased BPS Biosciences 50200
The data set can be described thus: ACC inhibitory assay (ADP-Glo luminescent ADP detection). It is filed as biochemical. Conditions: for inhibition at 0.1 µM: hACC1, 0.1 μM, read-out: IRs (%) 0.1 μM; for inhibition at 0.1 µM / inhibition at 5 µM: mean of two independent experiments (Table 2); for inhibition at 5 µM: hACC1, 5 μM, read-out: IRs (%) 5 μM; for IC50: hACC1, mean ± SD. The protocol: The hACC1 inhibitory activity of target compounds was evaluated using the ADP-Glo^TM kinase assay according to our previous report. In brief, 4.5 µL of working solution containing recombinant ACC1 (BPS Biosciences, 50200) and 0.5 µL of diluted compound solution were added to a 384-well Optiplate plate (Perkin Elmer, 6007290, PerkinElmer, Waltham, MA, USA), and incubated at room temperature for 15 min. Then, 5 µL of substrate mixture was added to the 384-well plate to start the reaction. After incubating for 60 min at room temperature, 10 µL of ADP-Glo reagents were added to the 384-well plate, and incubated for another 40 min to deplete the remaining ATP. Finally, 20 µL of kinase detection reagents were added to the plate and incubated for 40 min to convert ADP to ATP. The luminescent signal of ATP was determined using an Envision multifunction reader (Perkin Elmer, 2104–0010, PerkinElmer, Waltham, MA, USA). The IC50 values were calculated using GraphPad Prism 5 software (GraphPad Software, La Jolla, CA, USA).

The nature of data set [5]: Cell viability of non-cancerous HUVEC. The format is cell-based, human. Conditions: human, HUVEC cells (non-cancerous). As for the experimental part: (§2) To investigate the selectivity of the synthesised compounds towards cancer cells, the non-cancerous HUVEC cell line was selected for testing.
as §1

Data set [6] concerns HUVEC. In words: Cell viability of non-cancerous HUVEC. It is filed as cell-based, human. Conditions: 10 μM. As for the experimental part:
as §2, §1

Compound `COc1ccc(Oc2ccc(-c3cc(C(C)NC(C)=O)on3)cc2)cc1` (stereo not drawn) [Compound 6c, N-(1-(3-(4-(4-Methoxyphenoxy)phenyl)isoxazol-5-yl)ethyl)acetamide] showed a melting point of 127.5 to 128.5 °C. In data set [1], this compound returned an IC50 of more than 10 µM. For the same compound, the IC50 in data set [2] was more than 10 µM. This compound also yielded an IC50 in data set [3] of more than 10 µM. Moreover, in data set [4], the inhibition at 0.1 µM was 9.89% and the inhibition at 5 µM worked out at 37.3%. The compound also returned a viability at 72 h, 10 µM in data set [5] of 82.4 ± 4.85%.

With `CCC(=O)NC(C)c1cc(-c2ccc(Oc3ccccc3)cc2)no1` (stereo not drawn) [Compound 6i, N-(1-(3-(4-Phenoxyphenyl)isoxazol-5-yl)ethyl)propionamide], the melting point lay within 129.5 to 130.5 °C. Besides, in data set [1], the IC50 was 4.21 ± 0.53 µM. Besides, the half-inhibitory concentration (IC50) in data set [2] turned out to be 2.97 ± 1.49 µM. In data set [3], the IC50 was found to be 6.02 ± 0.63 µM. Moreover, in data set [4], the inhibition at 0.1 µM came out at 18.5% and the inhibition at 5 µM was 51.8%. Moreover, the viability at 72 h, 10 µM in data set [5] was determined as 70.33 ± 0.25%.

`CC(NC(=O)NCc1ccccc1)c1cc(-c2ccc(Oc3ccccc3)cc2)no1` (stereo not drawn) [Compound 6q, 1-Benzyl-3-(1-(3-(4-phenoxyphenyl)isoxazol-5-yl)ethyl)urea] showed a melting point of 161.5 to 162.5 °C. This compound also gave a concentration for half-maximal inhibition (IC50) in data set [1] of 2.47 ± 0.5 µM. The compound further displayed an IC50 in data set [2] of 0.89 ± 0.26 µM. In data set [3], this compound returned an IC50 of 5.73 ± 0.11 µM. In data set [4], the inhibition at 0.1 µM was determined as 28.3%, the inhibition at 5 µM was more than 60% and the IC50 was 711 ± 52.6 nM. Further, the viability at 72 h, 10 µM in data set [5] turned out to be 84.9 ± 3.98%. In addition, the “IRs towards HUVEC” value in data set [6] is reported as “less than 20%”.

Compound `CCNC(=O)NC(C)c1cc(-c2ccc(Oc3ccccc3)cc2)no1` (stereo not drawn) [Compound 6n, 1-Ethyl-3-(1-(3-(4-phenoxyphenyl)isoxazol-5-yl)ethyl)urea] had a melting point of 158.5 to 159.5 °C. Moreover, in data set [1], the IC50 was determined as 9.04 ± 1.43 µM. The IC50 in data set [2] turned out to be 8.63 ± 1.14 µM. Also, half-maximal inhibition in data set [3] (IC50) was put at 5.78 ± 0.86 µM. In data set [4], the inhibition at 0.1 µM turned out to be 13.4% and the inhibition at 5 µM came out at 44.7%. This compound yielded a viability at 72 h, 10 µM in data set [5] of 83.2 ± 2.33%.

For `COc1cccc2c1C(=O)c1c(O)c3c(c(O)c1C2=O)C[C@@](O)(C(=O)CO)C[C@@H]3O[C@H]1C[C@H](N)[C@H](O)[C@H](C)O1` [DOX, doxorubicin, reference compound], the IC50 in data set [1] turned out to be 0.67 ± 0.13 µM; in data set [2] it was 0.42 ± 0.09 µM; in data set [3], 0.52 ± 0.07 µM. Moreover, the viability at 72 h, 10 µM in data set [5] came to 18.9 ± 4.02%.

With `CC(=O)NC(C)c1cc(-c2ccc(Oc3ccc(O)cc3)cc2)no1` (stereo not drawn) [Compound 6b, N-(1-(3-(4-(4-Hydroxyphenoxy)phenyl)isoxazol-5-yl)ethyl)acetamide], the melting point is 103 to 105 °C. In data set [1], this compound gave an IC50 of more than 10 µM. This compound also yielded an IC50 in data set [2] of more than 10 µM. In data set [3], this compound had an IC50 of more than 10 µM. In data set [4], the inhibition at 0.1 µM worked out at 8.76% and the inhibition at 5 µM was 26.8%. In data set [5], this compound registered a viability at 72 h, 10 µM of 88.1 ± 3.83%.

Regarding `CCOC(=O)NC(C)c1cc(-c2ccc(Oc3ccccc3)cc2)no1` (stereo not drawn) [Compound 6m, Ethyl (1-(3-(4-phenoxyphenyl)isoxazol-5-yl)ethyl)carbamate], the melting point was in the range of 106.5 to 107.5 °C. This compound also showed an IC50 in data set [1] of more than 10 µM. This compound came in with an IC50 in data set [2] of more than 10 µM. Moreover, in data set [3], the IC50 was more than 10 µM. In data set [4], the inhibition at 0.1 µM amounted to 3.57% and the inhibition at 5 µM was 16.8%. The “ACC inhibitory activity (in words)” value in data set [4] (screening at 5 µM and 0.1 µM) was “hardly observed”. Further, in data set [5], the viability at 72 h, 10 µM was 79.1 ± 4.76%.

In turn, `CC(NC(=O)C1CC1)c1cc(-c2ccc(Oc3ccccc3)cc2)no1` (stereo not drawn) [Compound 6j, N-(1-(3-(4-Phenoxyphenyl)isoxazol-5-yl)ethyl)cyclopropanecarboxamide] registered a melting point of 168.5 to 169.5 °C. The compound further came in with an IC50 in data set [1] of 3.48 ± 0.74 µM. Moreover, the IC50 in data set [2] worked out at 1.13 ± 0.38 µM. In data set [3], this compound yielded an IC50 of 2.66 ± 0.47 µM. In data set [4], the inhibition at 0.1 µM came to 20.8% and the inhibition at 5 µM came out at 58.4%. Further, in data set [5], the viability at 72 h, 10 µM turned out to be 59.5 ± 0.95%.

Consider `O=C(c1c2ccccc2cc2ccccc12)N1CCC(N2CCC[C@@H](C(=O)N3CCOCC3)C2)CC1` [CP-640186, reference compound], for which the “hACC1 IRs (%)” value in data set [4] (at 5 μM, HTVS candidates (Table 1)) was determined as 86.83%. Besides, in data set [4], the inhibition at 0.1 µM worked out at 48.9%, the inhibition at 5 µM turned out to be 87.8% and the IC50 was 109 ± 6.2 nM.

Take `CC(NC(=O)Nc1ccccc1)c1cc(-c2ccc(Oc3ccccc3)cc2)no1` (stereo not drawn) [Compound 6p, 1-(1-(3-(4-Phenoxyphenyl)isoxazol-5-yl)ethyl)-3-phenylurea]: the melting point fell in the range of 195.5 to 196.5 °C. For the same compound, the IC50 in data set [1] was determined as 1.8 ± 0.62 µM. Besides, the IC50 in data set [2] came to 0.84 ± 0.08 µM. Besides, the IC50 in data set [3] came out at 5.3 ± 0.46 µM. In data set [4], the inhibition at 0.1 µM is 21.5%, the inhibition at 5 µM was more than 60% and it took 1050 ± 180 nM to reach half-maximal inhibition (IC50). The compound also gave a viability at 72 h, 10 µM in data set [5] of 85.6 ± 7.35%. Besides, the “IRs towards HUVEC” value in data set [6] is on record as “less than 20%”.

Turning to `CC(C)NC(=O)NC(C)c1cc(-c2ccc(Oc3ccccc3)cc2)no1` (stereo not drawn) [Compound 6o, 1-Isopropyl-3-(1-(3-(4-phenoxyphenyl)isoxazol-5-yl)ethyl)urea], the melting point was in the range of 197.5 to 198.5 °C. Further, half-maximal inhibition in data set [1] (IC50) was put at 2.31 ± 0.44 µM. In data set [2], this compound gave an IC50 of 1.9 ± 0.52 µM. The compound further displayed an IC50 in data set [3] of 3.12 ± 0.19 µM. In data set [4], the inhibition at 0.1 µM stood at 17.9% and the inhibition at 5 µM was 49.8%. The same compound showed a viability at 72 h, 10 µM in data set [5] of 77.7 ± 5.67%.

With `CC(NC(=O)c1ccccc1)c1cc(-c2ccc(Oc3ccccc3)cc2)no1` (stereo not drawn) [Compound 6k, N-(1-(3-(4-Phenoxyphenyl)isoxazol-5-yl)ethyl)benzamide], the IC50 in data set [1] came out at 3.23 ± 0.89 µM; in data set [2], 0.57 ± 0.18 µM; in data set [3] it was 2.61 ± 0.34 µM; in data set [4] it was 626 ± 41.6 nM. For the same compound, in data set [4], the inhibition at 0.1 µM came to 28.1%. Moreover, in data set [4], the inhibition at 5 µM is more than 60%. This compound also yielded a viability at 72 h, 10 µM in data set [5] of 80 ± 2.47%. Also, the “IRs towards HUVEC” value in data set [6] is listed as “less than 20%”.

`CC(=O)NC(C)c1cc(-c2ccc(Oc3ccc(OC(C)C)cc3)cc2)no1` (stereo not drawn) [Compound 6f, N-(1-(3-(4-(4-Isopropoxyphenoxy)phenyl)isoxazol-5-yl)ethyl)acetamide] yielded a melting point of 124 to 126 °C. Also, in data set [1], the IC50 was more than 10 µM. The same compound had an IC50 in data set [2] of 6.77 ± 0.74 µM. Also, in data set [3], the concentration for half-maximal inhibition (IC50) is more than 10 µM. Besides, in data set [4], the inhibition at 0.1 µM turned out to be 16.7% and the inhibition at 5 µM was found to be 52.8%. In addition, the viability at 72 h, 10 µM in data set [5] was 35 ± 1.66%.

Take `CC(=O)NC(C)c1cc(-c2ccc(Oc3ccccc3)cc2)no1` (stereo not drawn) [Compound 6h, N-(1-(3-(4-Phenoxyphenyl)isoxazol-5-yl)ethyl)acetamide]: the melting point fell in the range of 118.5 to 119.5 °C. The IC50 in data set [1] is more than 10 µM. The same compound returned an IC50 in data set [2] of more than 10 µM. Moreover, in data set [3], the IC50 is more than 10 µM. Also, in data set [4], the inhibition at 0.1 µM was determined as 8.78% and the inhibition at 5 µM came to 36.4%. Also, in data set [5], the viability at 72 h, 10 µM amounted to 91.5 ± 2.58%.

Consider `CCOc1ccc(Oc2ccc(-c3cc(C(C)NC(C)=O)on3)cc2)cc1` (stereo not drawn) [Compound 6d, N-(1-(3-(4-(4-Ethoxyphenoxy)phenyl)isoxazol-5-yl)ethyl)acetamide], for which the melting point lay within 106.5 to 107.5 °C. Also, the half-inhibitory concentration (IC50) in data set [1] was more than 10 µM. Also, the IC50 in data set [2] was more than 10 µM. In data set [3], this compound showed an IC50 of more than 10 µM. For the same compound, in data set [4], the inhibition at 0.1 µM was found to be 12.7% and the inhibition at 5 µM stood at 45.5%. Further, in data set [5], the viability at 72 h, 10 µM worked out at 89.1 ± 6.09%.

For orientation: IC50 means the midpoint of a concentration-inhibition curve. In general, melting point refers to the temperature of the solid-liquid transition. Broadly, the viability is the share of living cells, or the viability signal relative to a control. A high value points to better survival.
